Source: US20030162824A1, “Methods of treating or preventing a cardiovascular condition using a cyclooxygenase-1 inhibitor” (priority 2001, published 2003)
Where “and” joins values, the source holds several entries; their conditions need not be identical. Equal entries are not always repeated.

Legend:
[1] = tested on: apoE knockout mice fed a 1% cholesterol diet; experiment: Effect of cyclooxygenase inhibition on the development of atherosclerosis in cholesterol-fed apoE knockout mice; conditions: for extent of lesion development: aortae after 10 weeks, vehicle 25.8±4.5%
Experimental: The role of cyclooxygenase-1 and cyclooxygenase-2 on the development of atherosclerosis in apoE knockout mice fed a 1% cholesterol diet was evaluated. […] ApoE^−/− fed a normal chow (n=20) and wildtype littermates (n=40) were used as controls for the study. Twenty-four hour urine samples were collected and the aortae harvested following 10 weeks of treatment.

hCox-1 = biological target: T1, hCox-1 (Homo sapiens, UniProt P23219); experiment: Evaluation of COX-1 activity in vitro (recombinant enzyme, PGE2 ELISA); assay type: biochemical
T1 construct: A 2.0 kb fragment containing the coding region of either human or murine COX-1 or human or murine COX-2; made in house; host or cells: SF9 insect cells (baculovirus, pVL1393)
Experimental: (§1) Recombinant baculoviruses were isolated by transfecting 4 μg of baculovirus transfer vector DNA into SF9 insect cells (2×10^8) along with 200 ng of linearized baculovirus plasmid DNA by the calcium phosphate method.
(§2) Recombinant viruses were purified by three rounds of plaque purification and high titer (10^7-10^8 pfu/mL) stocks of virus were prepared. For large scale production, SF9 insect cells were infected in 10 liter fermentors (0.5×10^6/mL) with the recombinant baculovirus stock such that the multiplicity of infection was 0.1. […] The homogenate was centrifuged at 10,000×G for 30 minutes, and the resultant supernatant was stored at −80° C. before being assayed for COX activity.
(§3) COX activity was assayed as PGE2 formed/μg protein/time using an ELISA to detect the prostaglandin released. CHAPS-solubilized insect cell membranes containing the appropriate COX enzyme were incubated in a potassium phosphate buffer (50 mM, pH 8.0) containing epinephrine, phenol, and heme with the addition of arachidonic acid (10 μM). Compounds were pre-incubated with the enzyme for 10-20 minutes prior to the addition of arachidonic acid. […] The PGE2 formed was measured by standard ELISA technology (Cayman Chemical).

hCox-2 = biological target: T2, hCox-2 (Homo sapiens, UniProt P35354); experiment: Evaluation of COX-2 activity in vitro (recombinant enzyme, PGE2 ELISA); assay type: biochemical
T2 construct: A 2.0 kb fragment containing the coding region of either human or murine COX-1 or human or murine COX-2; made in house; host or cells: SF9 insect cells (baculovirus, pVL1393)
T2 sequence (P35354 18-604): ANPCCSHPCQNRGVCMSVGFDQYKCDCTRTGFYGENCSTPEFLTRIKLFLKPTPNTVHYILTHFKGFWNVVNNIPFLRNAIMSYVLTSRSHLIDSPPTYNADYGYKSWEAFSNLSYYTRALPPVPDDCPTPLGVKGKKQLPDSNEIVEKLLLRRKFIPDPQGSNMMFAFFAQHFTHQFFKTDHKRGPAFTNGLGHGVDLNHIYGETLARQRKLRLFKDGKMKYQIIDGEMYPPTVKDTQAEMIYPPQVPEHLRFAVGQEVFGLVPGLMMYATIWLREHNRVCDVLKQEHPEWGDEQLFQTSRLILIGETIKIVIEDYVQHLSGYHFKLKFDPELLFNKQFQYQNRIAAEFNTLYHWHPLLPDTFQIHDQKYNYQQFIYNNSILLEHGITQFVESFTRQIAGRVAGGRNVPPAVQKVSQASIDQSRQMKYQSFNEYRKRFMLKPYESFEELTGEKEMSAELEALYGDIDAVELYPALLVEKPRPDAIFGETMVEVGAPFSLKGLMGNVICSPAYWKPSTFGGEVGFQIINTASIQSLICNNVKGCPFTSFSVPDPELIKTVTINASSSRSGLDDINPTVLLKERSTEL
Experimental: as §1, §2, §3

[2] = 10 weeks, COX-1 inhibitor 15 mg/kg daily, COX-2 inhibitor 6 mg/kg
[3] = COX-1 inhibitor 15 mg/kg daily, COX-2 inhibitor 6 mg/kg

T1 sequence (P23219 24-599): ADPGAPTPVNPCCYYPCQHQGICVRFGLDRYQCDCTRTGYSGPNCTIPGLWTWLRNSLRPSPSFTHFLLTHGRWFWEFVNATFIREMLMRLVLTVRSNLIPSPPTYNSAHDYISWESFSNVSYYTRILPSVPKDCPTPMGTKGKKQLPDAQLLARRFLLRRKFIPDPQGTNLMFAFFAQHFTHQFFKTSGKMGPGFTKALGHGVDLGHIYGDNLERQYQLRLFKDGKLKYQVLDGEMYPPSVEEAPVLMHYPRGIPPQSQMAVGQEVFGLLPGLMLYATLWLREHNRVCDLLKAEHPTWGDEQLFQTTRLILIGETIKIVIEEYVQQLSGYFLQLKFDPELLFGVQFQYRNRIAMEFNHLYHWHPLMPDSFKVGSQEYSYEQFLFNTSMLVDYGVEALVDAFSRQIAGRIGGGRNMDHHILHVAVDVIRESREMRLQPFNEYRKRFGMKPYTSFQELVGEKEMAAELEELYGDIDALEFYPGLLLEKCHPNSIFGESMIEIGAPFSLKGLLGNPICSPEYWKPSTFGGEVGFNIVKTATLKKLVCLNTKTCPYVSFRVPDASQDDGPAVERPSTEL

Compound	IC50 (hCox-1)	IC50 (hCox-2) [µM]	also measured
COc1ccc(-n2nc(C(F)(F)F)cc2-c2ccc(Cl)cc2)cc1	–	–	CD41 staining of lesions (platelet deposition) [1, 2]: markedly attenuated
COc1ccc(-n2nc(C(F)(F)F)cc2-c2ccc(Cl)cc2)cc1 [Compound 1]	–	–	Urinary TXB2 excretion ([1]; 24 h urine after 10 weeks of treatment, COX-1 inhibitor 15 mg/kg daily, vehicle 20.7±4.02): 2.63 ± 0.59 ng/mL; extent of lesion development [1, 3]: 4.6±0.4%
COc1ccc(-n2nc(C(F)F)cc2-c2ccc(Cl)cc2)cc1 [Compound 2, 5-(4-chlorophenyl)-3-(difluoromethyl)-1-(4-methoxyphenyl)pyrazole]	< 0.137 µM and 0.021 µM	> 100	–
COC(=O)c1cc(-c2ccc(Cl)cc2)n(-c2ccc(OC)cc2)n1 [Compound 3, 5-(4-chlorophenyl)-3-(methoxycarbonyl)-1-(4-methoxyphenyl)pyrazole]	0.284 µM	> 100	–
COc1ccc(-n2nc(C(=O)O)cc2-c2ccc(Cl)cc2)cc1 [Compound 4, 3-carboxy-5-(4-chlorophenyl)-1-(4-methoxyphenyl)pyrazole]	55.7 µM	> 100	–
FC(F)(F)c1cc(-c2ccccc2)n(-c2ccc(Cl)cc2)n1 [Compound 7, 1-(4-chlorophenyl)-5-phenyl-3-(trifluoromethyl)pyrazole]	0.085 µM	> 1000	–
FC(F)(F)c1cc(-c2ccc(Cl)cc2)n(-c2ccccc2)n1 [Compound 9, 5-(4-chlorophenyl)-1-phenyl-3-(trifluoromethyl)pyrazole]	0.123 µM	> 1000	–
FC(F)(F)c1cc(-c2ccc(Br)cc2)n(-c2ccccc2)n1 [Compound 12, 5-(4-bromophenyl)-1-phenyl-3-(trifluoromethyl)pyrazole]	0.435 µM	> 500	–
FC(F)(F)c1cc(-c2cccc(Br)c2)n(-c2ccccc2)n1 [Compound 13]	3.3 µM	> 100	–
FC(F)(F)c1cc(-c2ccc(I)cc2)n(-c2ccccc2)n1 [Compound 15, 5-(4-iodophenyl)-1-phenyl-3-(trifluoromethyl)pyrazole]	0.65 µM	> 100	–
Cc1ccc(-c2cc(C(F)(F)F)nn2-c2ccc(Br)cc2)cc1 [Compound 16, 1-(4-bromophenyl)-5-(4-methylphenyl)-3-(trifluoromethyl)pyrazole]	< 0.137 µM	0.424	–
COC(=O)c1nn(-c2ccc(OC)cc2)c2c1CCc1cc(OC)ccc1-2 [Compound 18]	0.442 µM	> 100	–
COc1ccc(-n2nc(C(F)F)cc2-c2ccc(SC)cc2)cc1 [Compound 19]	0.126 µM	> 100	–
COc1ccc(-n2nc(CCC(=O)N(C)O)cc2-c2ccc(Cl)cc2)cc1 [Compound 20]	0.027 µM	> 1000	–
O=[N+]([O-])c1ccc(-c2cc(C(F)F)nn2-c2ccc(F)cc2)cc1 [Compound 21]	0.647 µM	22.8	–
O=[N+]([O-])c1ccc(-n2nc(C(F)(F)F)cc2-c2ccc(Cl)cc2)cc1 [Compound 22]	0.81 µM	> 100	–
O=[N+]([O-])c1ccc(-n2nc(C(F)F)cc2-c2ccc(Cl)cc2)cc1 [Compound 23]	0.676 µM	> 100	–
NS(=O)(=O)c1ccc(-n2nc(C(=O)O)cc2-c2ccccc2)cc1 [Compound 24]	≤ 0.137 µM	–	–
COC(=O)c1ccc(-n2nc(C(F)(F)F)cc2-c2ccc(C)cc2)cc1 [Compound 26]	0.31 µM	> 100	–
COc1ccc2c(c1)CSc1c(C(F)(F)F)nn(-c3ccc(Cl)cc3)c1-2 [Compound 27]	0.141 µM	> 100	–
COc1ccc(-c2cc(C(F)F)nn2-c2ccc(Cl)cc2)cc1F [Compound 28]	0.643 µM	23	–
COc1ccc(-n2nc(CO[N+](=O)[O-])cc2-c2ccc(Cl)cc2)cc1 [Compound 29]	0.242 µM	–	–
Cc1ccc(-c2cc(C(F)(F)F)nn2-c2ccc(C(F)(F)F)cc2)cc1 [Compound 30]	0.108 µM	> 100	–
COc1ccc(-c2cc(C(F)(F)F)nn2-c2ccc(C)cc2)cc1C [Compound 31]	0.287 µM	67.1	–
COc1ccc(-n2nc(C(=O)Nc3ccc(N=[N+]=[N-])cc3)cc2-c2ccc(Cl)cc2)cc1 [Compound 32]	0.012 µM	≥ 1000	–
NS(=O)(=O)c1ccc(-n2nc(C(F)(F)F)cc2-c2ccc(Cl)cc2)cc1 [selective COX-2 inhibitor, 4-[5-(4-chlorophenyl)-3-(trifluoromethyl)-1H-pyrazol-1-yl]benzenesulfonamide, reference compound]	–	–	CD41 staining of lesions (platelet deposition) [1, 2]: no effect; effect on TXB2 excretion (in words) ([1]; 10 weeks, COX-2 inhibitor 6 mg/kg): no effect; extent of lesion development [1, 3]: 27.9±1.8%
